Assay results reported in PMC12566703, “Design, Synthesis, In Vitro and In Silico Biological Evaluation of New Pyridine-2,5-Dicarboxylates Esters Bearing Natural Source Fragments as Anti-Trypanosomatid Agents” (Pharmaceutics, 2025).
Where two headings read alike, the source gives them in different places.

What was measured:
[1] = test system: T. cruzi (A1) epimastigotes; experiment: In vitro trypanocidal activity, Alamar Blue assay, 48 h; assay type: cell-based, Trypanosoma cruzi; settings: for IC50: 48 h; for Selectivity Index T. cruzi A1: CC50 (J774.2)/IC50
Experimental: (§1) Both strains were maintained in liver infusion tryptose (LIT) medium supplemented with 10% FBS and 0.1% penicillin-streptomycin. They were preserved by transferring 1 × 10^6 parasites/mL into a new culture medium every week. […] The metabolic activity was determined by the Alamar Blue assay. Briefly, after the incubation period, 20 µL of 2.5 mM resazurin solution was added to each well and incubated for 3 h. Three independent experiments were performed in triplicate. The half-maximum inhibitory concentration (IC50) was determined using probit analysis.

[2] = test system: L. mexicana (MNYC/BZ/62/M379) (M379) promastigotes; experiment: In vitro leishmanicidal activity, MTT method, 48 h; assay type: cell-based, Leishmania mexicana; settings: for Selectivity Index L. mexicana M379: CC50 (J774.2)/IC50; for IC50: Leishmania mexicana, 48 h, read-out: L. mexicana IC50 (µM ± SD) M379; for IC50 / Leishmanicidal activity class in words, M379 strain: promastigotes, M379 strain; for Leishmanicidal activity class in words, M379 strain: classes by IC50
Experimental: (§2) To determine the leishmanicidal activity of pyridine-2,5-dicarboxylates, the parasites, in their logarithmic growth phase (5 × 10^5 parasites/mL), were cultured in 96-well microliter plates with the corresponding pyridine-2,5-dicarboxylate compound at different concentrations (0.78–100 µM). Compounds were dissolved in DMSO in a final volume of 200 µL for 48 h at 26 °C. Parasites treated with DMSO (0.2%) were used as a negative control, while treatments with Glucantime and Amphotericin B, at the same concentrations, were used as positive controls. The metabolic activity of the cells was determined using the 3-(4,5-Dimethylthiazol-2-yl)-2,5-diphenyltetrazolium bromide (MTT) method. IC50 was determined using probit analysis. Three independent experiments were performed in triplicate, and the data were analyzed for statistical significance (p < 0.05) using Biostat 5.3.0 software.

[3] = test system: L. mexicana (MHOM/MX/2017/UABJO17FCQEPS) (FCQEPS) promastigotes; experiment: In vitro leishmanicidal activity, MTT method, 48 h; assay type: cell-based, Leishmania mexicana; settings: for Selectivity Index L. mexicana FCQEPS: CC50 (J774.2)/IC50; for IC50: Leishmania mexicana, 48 h, read-out: L. mexicana IC50 (µM ± SD) FCQEPS; for IC50 / Leishmanicidal activity class in words, FCQEPS strain: promastigotes, FCQEPS strain; for Leishmanicidal activity class in words, FCQEPS strain: classes by IC50
Experimental: as §2

[4] = test system: T. cruzi (NINOA) epimastigotes; experiment: In vitro trypanocidal activity, Alamar Blue assay, 48 h; assay type: cell-based, Trypanosoma cruzi; settings: for Selectivity Index T. cruzi NINOA: CC50 (J774.2)/IC50; for IC50: 48 h, read-out: T. cruzi IC50 (µM ± SD) NINOA
Experimental: as §1

[5] = Cytotoxicity assay, MTT method, 48 h; assay type: cell-based, murine; settings: mouse, J774.2 macrophage cells, J774.2 cell line, read-out: Macrophage J774.2 CC50 (µM ± SD)
Experimental: A cytotoxicity assay was performed using the murine macrophage J774.2 cell line, which was recloned from the original ascites and solid tumor J774.1 (according to the manufacturer). The cells were cultured in RPMI medium supplemented with 10% SBF, 100 U […] penicillin, 100 µg/mL streptomycin, and glutamine (2 mM), and 5% CO2 atmosphere. The medium was changed every 2–3 days. Macrophages were used at 1 × 10^6 cells and were incubated with compounds at different concentrations (0.75–100 µM, respectively) at 37 °C for 48 h in a 5% CO2 atmosphere. DMSO was used as a negative control (0.2%). The metabolic activity of macrophages was determined by the MTT method. The percentage of cell viability was calculated, and the half-maximal cytotoxic concentration (CC50) was determined using probit analysis. Three independent assays were conducted in triplicate.

[6] = Trypanosoma cruzi, epimastigotes, NINOA strain
[7] = Trypanosoma cruzi, epimastigotes, A1 strain, read-out: T. cruzi IC50 (µM ± SD) A1
[8] = epimastigotes, A1 strain, read-out: T. cruzi IC50 (µM ± SD) A1

Structure (SMILES)	IC50 ([1]; Trypanosoma cruzi, read-out: T. cruzi IC50 (µM ± SD) A1, epimastigotes, A1 strain, 48 h)	IC50 ([1]; read-out: T. cruzi IC50 (µM ± SD) A1, epimastigotes, A1 strain)	Selectivity Index L. mexicana M379 [2]	IC50 [2]	Leishmanicidal activity class in words, M379 strain [2]	Selectivity Index L. mexicana FCQEPS [3]	IC50 [3]	Leishmanicidal activity class in words, FCQEPS strain [3]	Selectivity Index T. cruzi NINOA [4]	IC50 [4, 6]	IC50 ([4]; epimastigotes, NINOA strain)	Trypanocidal activity class in words, NINOA strain ([4]; epimastigotes, NINOA strain, classes by IC50)	Selectivity Index T. cruzi A1 [1]	CC50 at 48 h [5]	IC50 [1, 7]	IC50 [1, 8]	Trypanocidal activity class in words, A1 strain ([1]; epimastigotes, A1 strain, classes by IC50)
O=C(Cn1ccnc1[N+](=O)[O-])NCc1ccccc1 [Bzn, Benznidazole, reference compound]	< 39 µM	39.08 ± 0.07 µM															
CCOC(=O)c1cc(-c2ccccc2)c(C(=O)OCC)nc1C [Compound 3a, Diethyl 6-methyl-3-phenylpyridine-2,5-dicarboxylate]			>1	> 200 µM	did not have antiparasitic activity	>1	> 200 µM	did not have leishmanicidal activity	>3.6	≤ 56.7 µM	54.5 ± 2.36 µM	moderate activity	>7.5	> 200 µM			
CCOC(=O)c1cc(-c2ccc(C)cc2)c(C(=O)OCC)nc1C [Compound 3b]			>1	> 200 µM	did not have antiparasitic activity	>1	> 200 µM		>3.3	59.3 µM	59.4 ± 1.45 µM		>1.9	> 200 µM	106 ± 1.16 µM		
CCOC(=O)c1cc(-c2ccc(F)cc2)c(C(=O)OCC)nc1C [Compound 3c]			>1	> 200 µM	inactive	>1.7	118 ± 2.08 µM		>1.9	100 ± 1.86 µM			>2.2	> 200 µM	91.7 ± 1.72 µM		
CCOC(=O)c1nc(C)c(C(=O)OCc2ccccc2)cc1-c1ccccc1 [Compound 4a, 5-Benzyl 2-ethyl 6-methyl-3-phenylpyridine-2,5-dicarboxylate]			>1	> 200 µM	did not have antiparasitic activity	>1	> 200 µM	did not have leishmanicidal activity	>4.7	≤ 56.7 µM	42.4 ± 1.88 µM		>7.0	> 200 µM	≤ 56.7 µM	28.5 ± 1.5 µM	
CCOC(=O)c1nc(C)c(C(=O)OCc2ccccc2)cc1-c1ccc(C)cc1 [Compound 4b, 5-Benzyl 2-ethyl 6-methyl-3-(p-tolyl)pyridine-2,5-dicarboxylate]			>1	> 200 µM	did not have antiparasitic activity	>1	> 200 µM		>7.5				>3.8	> 200 µM	≤ 56.7 µM	52.6 ± 1.87 µM	
CCOC(=O)c1nc(C)c(C(=O)OCc2ccccc2)cc1-c1ccc(F)cc1 [Compound 4c]			>1	> 200 µM	inactive	>1	> 200 µM		>1	> 200 µM			>1	> 200 µM	> 200 µM		
CCOC(=O)c1nc(C)c(C(=O)OCc2ccc(C)cc2)cc1-c1ccccc1 [Compound 5a, 2-Ethyl 5-(4-methylbenzyl) 6-methyl-3-phenylpyridine-2,5-dicarboxylate]			>1	> 200 µM	did not have antiparasitic activity	>2.1	95 ± 1.36 µM		>3.5	≤ 56.7 µM	56.6 ± 1.26 µM		>9.3	> 200 µM			
CCOC(=O)c1nc(C)c(C(=O)OCc2ccc(C)cc2)cc1-c1ccc(C)cc1 [Compound 5b]			>1	> 200 µM	did not have antiparasitic activity	>1	> 200 µM		>1	> 200 µM			>1	> 200 µM	> 200 µM		completely lose their trypanocidal activity
CCOC(=O)c1nc(C)c(C(=O)OCc2ccc(C)cc2)cc1-c1ccc(F)cc1 [Compound 5c]			>1	> 200 µM	inactive	>1	> 200 µM	abolished their leishmanicidal activity	>1	> 200 µM			>9.6	> 200 µM	20.8 ± 0.1 µM		
CCOC(=O)c1nc(C)c(C(=O)OCc2ccc3c(c2)OCO3)cc1-c1ccccc1 [Compound 6a, 5-(Benzo[d][1,3]dioxol-5-ylmethyl) 2-ethyl 6-methyl-3-phenylpyridine-2,5-dicarboxylate]			>1	> 200 µM	did not have antiparasitic activity	>1	> 200 µM	did not have leishmanicidal activity	>7.3	< 28 µM	27.2 ± 0.84 µM		>1	> 200 µM	> 200 µM		
CC1CS(=O)(=O)CCN1/N=C/c1ccc([N+](=O)[O-])o1 (stereo not drawn) [Nfx, Nifurtimox, reference compound]										7.09 ± 0.12 µM					19.3 ± 0.08 µM		
